Measured values reported in PMC12408761, “Impact of physical activity on ethoxy- and propoxypropanol human toxicokinetics in vivo” (Archives of Toxicology, 2025).
Like-named read-outs stand apart in the source and are kept apart here.

What was measured:
[1] = Controlled human inhalation exposure (4 h in exposure chamber, at rest or with moderate physical activity): toxicokinetics in blood, urine and exhaled breath; format: in vivo; details: for Time at which Cmax was reached (Tmax): time after start of exposure; for average Cmax in exhaled breath: for a same concentration of exposure; for Time at which Cmax was reached: urine and exhaled breath; for Increase of urinary absorption rate with physical activity versus rest: first 2 h of exposure
Method: All exposure sessions were performed under controlled conditions at the Department of Occupational and Environmental Health, Center for Primary Care and Public Health (Unisanté), University of Lausanne, in Switzerland. PGEE or PGPE air concentrations were generated in a 12 m^3 exposure chamber (Guillemin [1975]) and monitored electronically (Lab VIEW software, National Instruments Corporation, Texas, USA) with a portable infrared spectroscopy gas analyzer for ambient air analysis (GASMET™ analyzer DX-4040 Gasmet Oy, Helsinki technologies, Finland) (Devanthery et al. [2003]; Tomicic et al. [2011]). During each exposure session, the participant spent 4 h inside the exposure chamber, and then 2 h outside in a solvent-free area. Each participant took part in four different exposure sessions comprising four different experimental conditions. Three sessions were performed at rest at either 25, 30, and 35 ppm of PGEE or 15, 20, and 25 ppm of PGPE. The fourth session was performed with moderate physical activity at 35 ppm of PGEE or 25 ppm of PGPE (Fig. 1).
The air concentrations were below the existing OEL for PGEE, i.e., 50 ppm. Given the absence of an OEL for PGPE, the chosen concentrations were previously tested to ensure odor tolerance for participants. The participants performed the physical activity at 1.5 W/kg on an ergonomic bicycle (Corival, Lode B.V., Groningen, The Netherlands) for 30 min twice during the same exposure session: the first without solvent exposure and the second with PGEE or PGPE. The physical activity design was adapted after discussion with sports science researchers from the University of Lausanne. A minimum of 48 h between two exposure sessions was determined to avoid possible cumulative exposure (Borgatta et al. [2022]). Blood, urine, and exhaled breath samples were collected before, during, and after all exposure sessions. The timing of sample collection was based on previous studies and protocol testing.
The blood samples were collected with an intravenous catheter inserted in the participant’s forearm by a research nurse into glass tubes (Vacutainers® NH Heparine Sodium, Becton Dickinson AG, Basel, Switzerland). A first blood sample was collected before the exposure session in a solvent-free area and used as baseline value. The timing following the first blood sample was 30, 120, 180, 240, 255, 300, and 360 min after the exposure to PGE started. The last blood sample was collected 24 h post-exposure. The blood samples were kept in the dark at 4 °C until analysis.
The participants were asked to provide a urine sample before the exposure session (solvent-free area, baseline) and then, every 2 h over 6 h. The participants continued to collect their urine (ad lib) samples at home for additional 24 h and bring them back in a cooler with cooling elements the day after the exposure session. They provided urine collection date, time, and total urinary volume. All urine samples were stored in polypropylene cups in the dark at 4 °C (Borgatta et al. [2021]). The cold storage is important to avoid any loss of substance as glycol ethers are volatile organic compounds.
The exhaled breath samples were collected using a non-invasive simple-to-use device for biological exposure monitoring of volatile organic compounds (BioVOC-2 Breath Sampler, Brechbühler, Schlieren, Switzerland). The last portion of expired breath (129 mL) was collected on thermal desorption (TD) tubes (Tenax® TA, Camsco, Böckten, Switzerland) from each participant. A first exhaled breath sample was collected before the exposure session in a solvent-free area (baseline). The timing following the first exhaled breath sample was 120, 240, 255, 260, 265, 270, 275 and 360 min after exposure had started and a last one 24 h post exposure. Exhaled breath samples were analyzed immediately after collection. […]

[2] = set-up: method as in Groeseneken et al. [1986], [1987]; details: humans; ref Groeseneken et al. [1986], [1987]; cited from earlier work
[3] = blood, at rest, 4 h inhalation, geometric mean ± SD
[4] = blood, physical activity, 35 ppm PGEE or 25 ppm PGPE, geometric mean ± SD
[5] = human, inhaled or intranasal, blood, at rest, 4 h inhalation (PGEE 25-35 ppm, PGPE 15-25 ppm), geometric mean ± SD
[6] = human, inhaled or intranasal, blood, at rest, 4 h inhalation, geometric mean ± SD, read-out: Cmax
[7] = human, inhaled or intranasal, urine, at rest, 4 h inhalation (PGEE 25-35 ppm, PGPE 15-25 ppm), geometric mean ± SD
[8] = human, inhaled or intranasal, urine, at rest, 4 h inhalation, geometric mean ± SD, read-out: Cmax
[9] = human, inhaled, blood, at rest, for a same concentration of exposure (25 ppm), read-out: average Cmax in blood
[10] = human, inhaled, blood, at rest, read-out: half-life in blood
[11] = human, inhaled, blood, physical activity (30 min, 1.5 W/kg), 35 ppm PGEE or 25 ppm PGPE, geometric mean ± SD
[12] = human, inhaled, blood, physical activity, 35 ppm PGEE or 25 ppm PGPE, geometric mean ± SD, read-out: Cmax
[13] = human, inhaled, exhaled breath, all exposure conditions, read-out: Half-life (converted)
[14] = human, inhaled, urine, physical activity (30 min, 1.5 W/kg), 35 ppm PGEE or 25 ppm PGPE, geometric mean ± SD
[15] = human, inhaled, urine, physical activity, 35 ppm PGEE or 25 ppm PGPE, geometric mean ± SD, read-out: Cmax
[16] = urine, at rest, 4 h inhalation, geometric mean ± SD
[17] = urine, physical activity, 35 ppm PGEE or 25 ppm PGPE, geometric mean ± SD

| SMILES | Absorption (absorption rate) [1, 3] [µg/mL/h*ppm] | Time at which Cmax was reached (Tmax) ([1]; blood, at rest) [min] | Absorption (absorption rate) [1, 4] [µg/mL/h*ppm] | Share of total blood uptake quantified in exhaled breath (AUC exhaled breath / AUC blood) ([1]; exhaled breath) | average Cmax in exhaled breath ([1]; exhaled breath, at rest) [ppm] | AUC [1, 5] [ng·h/mL] | Cmax [1, 6] [ng/mL] | AUC [1, 7] [ng·h/mL] | Cmax [1, 8] [ng/mL] | Cmax [1, 9] [ng/mL] | half-life [1, 10] [min] | AUC [1, 11] [ng·h/mL] | Cmax [1, 12] [ng/mL] | half-life [1, 13] [min] | AUC [1, 14] [ng·h/mL] | Cmax [1, 15] [ng/mL] | Time at which Cmax was reached ([1]; all conditions) | Absorption (absorption rate) [1, 16] [µg/mL/h*ppm] | Increase of urinary absorption rate with physical activity versus rest ([1]; urine) | Absorption (absorption rate) [1, 17] [µg/mL/h*ppm] | other results |
| --- | --- | --- | --- | --- | --- | --- | --- | --- | --- | --- | --- | --- | --- | --- | --- | --- | --- | --- | --- | --- | --- |
| CCCOCC(C)O (centres unmarked) [PGPE, propylene glycol propyl ether] | 0.011 ± 0 | 180 | 0.024 ± 0.002 | 1.1% | 2.25 ± 0.66 | 2650 | 500 ± 130 | 1910 | 450 ± 110 | 650 ± 90 | 54 | 5130 | 1230 ± 90 | 2.28 | 3090 | 710 ± 140 | at the end of exposure | 0.007 ± 0.0017 | did not differ significantly | 0.0087 ± 0.0008 | half-life ([1]; human, inhaled, urine, all conditions, read-out: urinary half-life): 54 min; Share of total blood uptake quantified in urine (AUC urine / AUC blood) ([1]; urine): 69.5%; half-life ([1]; urine, all exposure conditions): 54 min |
| CCOCCO [EGEE, ethylene glycol ethyl ether] | – | – | – | – | – | – | – | – | – | – | – | – | – | – | – | – | – | – | – | – | exhalation as share of the total uptake [2]: less than 0.4% |
| CCOCC(C)O (centres unmarked) [PGEE, propylene glycol ethyl ether] | 0.013 ± 0 | 240 | 0.038 ± 0.004 | less than 0.5% | 2.81 ± 0.76 | 7320 | 1070 ± 300 | 5050 | 1070 ± 210 | 810 ± 80 | 60 | 16600 | 2760 ± 260 | 2.88 | 8820 | 1810 ± 470 | at the end of exposure | 0.010 ± 0.002 | 1.5 times | 0.014 ± 0.003 | Blood concentration following PGEE exposure compared to PGPE ([1]; blood, same concentration of exposure (25 ppm)): 1.3 fold; half-life ([1]; human, inhaled, urine, all exposure conditions, read-out: Half-life (converted)): 78 min |
| CCOCCOC(C)=O [EGEEAc] | – | – | – | – | – | – | – | – | – | – | – | – | – | – | – | – | – | – | – | – | exhalation as share of the total uptake [2]: less than 0.4% |
